Source: patent publication US20250304571A1, “BIOLOGICALLY ACTIVE COMPOUNDS AND METHODS THEREOF” (Suzhou Keen Therapeutics Co., Ltd., priority 2022, published 2025)

test system: 786-O (renal cell carcinoma) cells; test: Cell viability (CellTiter Glo) assay, inhibition of 786-O cell proliferation; format: cell-based; conditions: 786-O cells, 72 hours, CellTiter Glo; read-out: IC50, inhibition of 786-O cell proliferation

Structure (SMILES) | IC50
CNc1nc(COC(=N)N2CCC[C@@H]2C(F)(F)F)nc2c1C(C)(C)C(=O)N2c1cc(F)c2c(c1)nc(C)n2C(C)C [Compound E32] | < 100 nM
CC1(C)C(=O)N(c2ccc3c(c2)C2(CCO3)CC2)c2nc(COC(=N)N3CCC[C@@H]3C(F)(F)F)nc(NCC(F)(F)F)c21 [Compound E66] | < 100 nM

same assay, conditions: Homo sapiens, 786-0, 72 h, read-out: IC50, inhibition of 786-O cell proliferation

Structure (SMILES) | IC50
CN(C)C(=N)OCc1nc(NC2CCCCC2)c2cc[nH]c2n1 [Compound D9] | 500 to 5000 nM
CN(C)C(=N)OCc1ncc2c(n1)c(-c1ccc(Oc3ccccc3)cc1)nn2C [Compound D11] | 500 to 5000 nM
COc1cc(N2CCOCC2)ccc1N1CC(C)(C)c2c(OCC(F)(F)F)nc(COC(=N)N3CCC[C@@H]3C(F)(F)F)nc21 [Compound E17] | < 100 nM
CNc1nc(COC(=N)N2CCCC2C(F)(F)F)nc2c1C(C)(C)C(=O)N2c1ccccc1Oc1ccccc1F (stereo not shown) [Compound E29] | < 100 nM
C[C@@H]1CN(c2ccc(N3C(=O)C4(CCCC4)c4c(N)nc(COC(=N)N5CCC[C@@H]5C(F)(F)F)nc43)cn2)C[C@H](C)O1 [Compound E46] | < 100 nM

same assay, conditions: Homo sapiens, 786-0; 786-O cells, 72 hours, CellTiter Glo; read-out: IC50, inhibition of 786-O cell proliferation

Structure (SMILES) | IC50
CNc1nc(COC(=N)N2CCC[C@H]2C(F)(F)F)nc2c1C1(CCCC1)C(=O)N2c1cnc(N2C[C@@H](C)O[C@@H](C)C2)nc1 (relative stereo) [Compound E103] | 100 to 500 nM
CCCC[C@H]1Cc2cc(OC)ccc2[C@H](c2ccc(F)cc2)N1C(=O)CO/C(=N\CCCN(C)C)NCC [Compound A3] | > 5000 nM
CCCC[C@H]1Cc2cc(OC)ccc2[C@H](c2ccc(F)cc2)N1C(=O)CO/C(=N\C(C)C)NC(C)C [Compound A4] | 500 to 5000 nM
CCCCC1Cc2c([nH]c3ccccc23)C(c2ccc(F)cc2)N1C(=O)COC(=N)N1CCN(CC)C(=O)C12CC2 (stereo not shown) [Compound B2] | 500 to 5000 nM
CC(C)N(CC(F)(F)F)C(=N)OCc1ncc2c(n1)N(c1ccc(OC3CCCCC3)nc1)C(=O)C21CC1 [Compound E13] | 100 to 500 nM
CNc1nc(COC(=N)N2CCC[C@@H]2C(F)(F)F)nc2c1C(C)(C)C(=O)N2c1cc(F)c2c(cnn2C(C)C)c1 [Compound E31] | < 100 nM
CNc1nc(COC(=N)N2CCC[C@@H]2C(F)(F)F)nc2c1C(C)(C)C(=O)N2c1cnc(N2C[C@@H](C)O[C@@H](C)C2)c(F)c1 [Compound E36] | < 100 nM
C[C@@H]1CN(c2ncc(N3C(=O)C(C)(C)c4c(N)nc(COC(=N)N5CCC[C@@H]5C(F)(F)F)nc43)cc2F)C[C@H](C)O1 [Compound E37] | < 100 nM
C[C@@H]1CN(c2ccc(N3C(=O)C(C)(C)c4c(NCC(F)(F)F)nc(COC(=N)N5CCC[C@@H]5C(F)(F)F)nc43)cn2)C[C@H](C)O1 [Compound E38] | < 100 nM
C[C@@H]1C[C@H](C)CN(c2ccc(N3C(=O)C(C)(C)c4c(NCC(F)(F)F)nc(COC(=N)N5CCC[C@@H]5C(F)(F)F)nc43)cc2F)C1 [Compound E43] | < 100 nM
C[C@@H]1CN(c2ccc(N3C(=O)C4(CCCC4)c4c(NCC(F)(F)F)nc(COC(=N)N5CCC[C@@H]5C(F)(F)F)nc43)cn2)C[C@H](C)O1 [Compound E44] | < 100 nM
COc1cc(N2C[C@@H](C)O[C@@H](C)C2)ncc1N1C(=O)C(C)(C)c2c(N)nc(COC(=N)N3CCC[C@@H]3C(F)(F)F)nc21 [Compound E47] | 100 to 500 nM
C[C@@H]1CN(c2ccc(N3C(=O)C(C)(C)c4c(NCC(F)(F)F)nc(COC(=N)N5CCC[C@@H]5C(F)(F)F)nc43)cc2F)C[C@H](C)O1 [Compound E50] | < 100 nM
CC1(C)C(=O)N(c2cc(F)c3c(c2)CCCO3)c2nc(COC(=N)N3CCC[C@@H]3C(F)(F)F)nc(NCC(F)(F)F)c21 [Compound E51] | < 100 nM
N=C(OCc1nc(NC2CC2)c2c(n1)N(c1cc(F)c3c(c1)CCO3)C(=O)C21CCCCC1)N1CCC[C@@H]1C(F)(F)F [Compound E55] | < 100 nM
N=C(OCc1ncc2c(n1)N(c1ccc(N3CCOCC3)cc1)C(=O)C21CCCCC1)N1CCC[C@@H]1C(F)(F)F [Compound E58] | < 100 nM
CC1(C)C(=O)N(c2cnc(N3CCC(F)(F)CC3)nc2)c2nc(COC(=N)N3CCC[C@@H]3C(F)(F)F)nc(NC3CC3)c21 [Compound E59] | < 100 nM
N=C(OCc1nc(NCC(F)(F)F)c2c(n1)N(c1cc(F)c3c(c1)CCO3)C(=O)C21CCCC1)N1CCC[C@@H]1C(F)(F)F [Compound E61] | < 100 nM
N=C(OCc1nc(N)c2c(n1)N(c1cnc(C3CC3)nc1)C(=O)C21CCCC1)N1CCC[C@@H]1C(F)(F)F [Compound E63] | < 100 nM

Continued, values first:

IC50 | Structure (SMILES)
> 5000 nM | CCCCC1Cc2c([nH]c3ccccc23)C(c2ccc(NC34CC5CC(CC(C5)C3)C4)cc2)N1C(=O)CO/C(=N\C(C)C)NC(C)C (stereo not shown) [Compound B1]
> 5000 nM | N=C(OCc1ncc2c(n1)N(c1ccc(Oc3ccccc3)cc1)C(=O)CC2)N1CCC(F)(F)CC1 [Compound C1]
100 to 500 nM | CC1(C)CN(c2ccc(Oc3ccccc3)cc2)c2nc(COC(=N)NC34CC5CC(CC(C5)C3)C4)nc(N)c21 [Compound E3]
100 to 500 nM | COc1ccc(CNc2nc(COC(=N)N3CCC(F)(F)CC3)nc3c2C(C)(C)CN3c2ccc(Oc3ccccc3)cc2)cc1 [Compound E6]
< 100 nM | CNc1nc(COC(=N)N2CCC(F)(F)CC2)nc2c1C(C)(C)CN2c1ccc(Oc2ccccc2)cc1 [Compound E7, (5,5-dimethyl-4-(methylamino)-7-(4-phenoxyphenyl)-6,7-dihydro-5H-pyrrolo[2,3-d]pyrimidin-2-yl)methyl 4,4-difluoropiperidine-1-carbimidate]
< 100 nM | CCN(CC(F)(F)F)C(=N)OCc1ncc2c(n1)N(c1ccc(Oc3ccccc3)cc1)CC2(C)C [Compound E9]
< 100 nM | CC1(C)CN(c2ccc(Oc3ccccc3)cc2)c2nc(COC(=N)N3CCCCC3C(F)(F)F)ncc21 (stereo not shown) [Compound E10]
500 to 5000 nM | CC1(C)CN(c2ccc(Oc3ccccc3)cc2)c2nc(COC(=N)N3CCCC34COC4)ncc21 [Compound E11]
100 to 500 nM | N=C(OCc1ncc2c(n1)N(c1ccc(Oc3ccccc3)cc1)C(=O)C21CC1)N1CCCCC1C(F)(F)F (stereo not shown) [Compound E12]
< 100 nM | CNc1nc(COC(=N)N2CCCC2C(F)(F)F)nc2c1C(C)(C)CN2c1ccc(N2CCOCC2)cc1OC (stereo not shown) [Compound E15]
< 100 nM | COc1cc(N2CCOCC2)ccc1N1CC(C)(C)c2c(NCC(F)(F)F)nc(COC(=N)N3CCC[C@@H]3C(F)(F)F)nc21 [Compound E16]
< 100 nM | CC1(C)CN(c2ccc(N3CCOCC3)cc2)c2nc(COC(=N)N3CCCC3C(F)(F)F)nc(N)c21 (stereo not shown) [Compound E18]
< 100 nM | CNc1nc(COC(=N)N2CCC[C@@H]2C(F)(F)F)nc2c1C(C)(C)CN2c1ccc(N2C[C@@H](C)O[C@@H](C)C2)nc1 [Compound E19]
< 100 nM | C[C@@H]1CN(c2ccc(N3CC(C)(C)c4c(N)nc(COC(=N)N5CCC[C@@H]5C(F)(F)F)nc43)cn2)C[C@H](C)O1 [Compound E20]
< 100 nM | C[C@@H]1CN(c2ccc(N3CC4(CCC4)c4c(NCC(F)(F)F)nc(COC(=N)N5CCC[C@@H]5C(F)(F)F)nc43)cn2)C[C@H](C)O1 [Compound E21]
< 100 nM | CNc1nc(COC(=N)N2CCCC2C(F)(F)F)nc2c1C(C)(C)C(=O)N2c1ccc(N2CCC(F)(F)CC2)nc1 (stereo not shown) [Compound E22]

IC50 | Structure (SMILES)
< 100 nM | CNc1nc(COC(=N)N2CCCC2C(F)(F)F)nc2c1C(C)(C)C(=O)N2c1ccc(N2C[C@@H](C)O[C@@H](C)C2)cc1 (stereo partly shown) [Compound E23]
500 to 5000 nM | CC#CC(C)(C)N(C)C(=N)OCc1nc(N)c2c(n1)N(c1ccc(N3CCOCC3)cc1)C(=O)C2(C)C [Compound E27]
< 100 nM | C[C@@H]1CN(c2ccc(N3C(=O)C4(CCC4)c4c(N)nc(COC(=N)N5CCC[C@@H]5C(F)(F)F)nc43)cn2)C[C@H](C)O1 [Compound E33]
< 100 nM | C[C@@H]1C[C@H](C)CN(c2ncc(N3C(=O)C(C)(C)c4c(N)nc(COC(=N)N5CCC[C@@H]5C(F)(F)F)nc43)cc2F)C1 [Compound E34]
< 100 nM | C[C@@H]1C[C@H](C)CN(c2ccc(N3C(=O)C(C)(C)c4c(N)nc(COC(=N)N5CCC[C@@H]5C(F)(F)F)nc43)cc2F)C1 [Compound E35]
< 100 nM | CNc1nc(COC(=N)N2CCC[C@@H]2C(F)(F)F)nc2c1C(C)(C)C(=O)N2c1ccc(N2C[C@H](C)C[C@H](C)C2)c(F)c1 [Compound E39]
100 to 500 nM | CNc1nc(COC(=N)N2CC(F)(F)C[C@@H]2C)nc2c1C(C)(C)C(=O)N2c1ccc(N2CCOCC2)cc1 [Compound E41]
100 to 500 nM | CNc1nc(COC(=N)N2CC(F)(F)C[C@H]2C)nc2c1C(C)(C)C(=O)N2c1ccc(N2CCOCC2)cc1 [Compound E42]
< 100 nM | C[C@@H]1CN(c2ccc(N3C(=O)C4(CCCCC4)c4c(N)nc(COC(=N)N5CCC[C@@H]5C(F)(F)F)nc43)cn2)C[C@H](C)O1 [Compound E45]
< 100 nM | CC1(C)C(=O)N(c2ccc(N3CCOCC3)cc2)c2nc(COC(=N)N3CCC[C@@H]3C(F)(F)F)nc(NCC(F)(F)F)c21 [Compound E48]
< 100 nM | CC1(C)C(=O)N(c2ccc(N3CCCCC3)cc2)c2nc(COC(=N)N3CCC[C@@H]3C(F)(F)F)nc(NCC(F)(F)F)c21 [Compound E49]
100 to 500 nM | CC1(C)C(=O)N(c2ccc(N3CCOCC3)cc2)c2nc(COC(=N)N3CC(F)C[C@H]3C(F)(F)F)nc(N)c21 (stereo partly shown) [Compound E52]
< 100 nM | N=C(OCc1nc(NC2CC2)c2c(n1)N(c1ccc(N3CCOCC3)cc1)C(=O)C21CCCC1)N1CCC[C@@H]1C(F)(F)F [Compound E53, (4′-(cyclopropylamino)-7′-(4-morpholinophenyl)-6′-oxo-6′,7′-dihydrospiro[cyclopentane-1,5′-pyrrolo[2,3-d]pyrimidin]-2′-yl)methyl (R)-2-(trifluoromethyl)pyrrolidine-1-carbimidate]
< 100 nM | CN(C)c1nc(COC(=N)N2CCC[C@@H]2C(F)(F)F)nc2c1C(C)(C)C(=O)N2c1ccc(N2CCOCC2)cc1 [Compound E54]
< 100 nM | C=CCNc1nc(COC(=N)N2CCC[C@@H]2C(F)(F)F)nc2c1C(C)(C)C(=O)N2c1ccc(N2CCOCC2)cc1 [Compound E56]
< 100 nM | CC1(C)C(=O)N(c2cc(F)c3c(c2)CCO3)c2nc(COC(=N)N3CCC[C@@H]3C(F)(F)F)nc(N)c21 [Compound E65]
